According to paper PMC4311242 (2015):

Assays:
[1] = system: kanamycin-binding DNA aptamer (DNA, aptamer) TGGGGGTTGAGGCTAAGCCGA; assay: fluorescence enhancement; conditions: 10 mM NaCl; 10 mM Tris-HCl pH 7.2, 25 °C; excitation 501 nm, emission 530 nm
[2] = system: Mut1 (DNA, aptamer) TGGGGGTTGAAACTAAGCCGA; assay: fluorescence enhancement; conditions: 10 mM NaCl; 10 mM Tris-HCl pH 7.2, 25 °C; excitation 501 nm, emission 530 nm
[3] = system: kanamycin-binding DNA aptamer (DNA, aptamer) TGGGGGTTGAGGCTAAGCCGA; assay: TO fluorescent intercalator displacement; conditions: 10 mM NaCl, 10 mM Tris-HCl pH 7.2, 25 °C
[4] = system: Mut2 (DNA, aptamer) TGGAAATTGAGGCTAAGCCGA; assay: TO fluorescent intercalator displacement; conditions: 10 mM NaCl; 10 mM Tris-HCl pH 7.2, 25 °C; TO displaced; affinity comparable to parent aptamer
[5] = TO tracer 3.5:1 to DNA, tested at 20 µM

| Compound | binding [3, 5] | further results |
| --- | --- | --- |
| CN1C(=Cc2cc[n+](C)c3ccccc23)Sc2ccccc21 |  | binding [1]: yes; binding [2]: weak |
| CN(C)[C@@H]1C(O)=C(C(N)=O)C(=O)[C@@]2(O)C(O)=C3C(=O)c4c(O)ccc(Cl)c4[C@@](C)(O)[C@H]3C[C@@H]12 | no |  |
| CN[C@@H]1[C@H](O[C@H]2[C@H](O[C@H]3[C@H](O)[C@@H](O)[C@H](N=C(N)N)[C@@H](O)[C@@H]3N=C(N)N)O[C@@H](C)[C@]2(O)C=O)O[C@@H](CO)[C@H](O)[C@H]1O | no |  |
| CN(C)[C@@H]1C(=O)C(C(N)=O)=C(O)[C@@]2(O)C(=O)C3=C(O)c4c(O)cccc4[C@@](C)(O)[C@H]3[C@H](O)[C@@H]12 | no |  |
| COc1cc(NS(=O)(=O)c2ccc(N)cc2)nc(OC)n1 | no |  |
| O=C(N[C@H](CO)[C@H](O)c1ccc([N+](=O)[O-])cc1)C(Cl)Cl | no |  |
| NC[C@H]1O[C@H](O[C@H]2[C@H](O)[C@@H](O[C@H]3O[C@H](CO)[C@@H](O)[C@H](N)[C@H]3O)[C@H](N)C[C@@H]2N)[C@H](O)[C@@H](O)[C@@H]1O |  | binding ([3]; TO displaced, kanamycin 0.1-100 µM): yes; binding [4]: yes |
| CC1(C)S[C@@H]2[C@H](NC(=O)[C@H](N)c3ccccc3)C(=O)N2[C@H]1C(=O)O | no |  |
